Laboratory results as given in paper PMC4999848 (Toxins, 2016).
“And” between values parts separate entries of the source, which are not always exact repeats. Identical values can stand only once. “Also recorded” adds a separate entry of the source.

Assays:
pepsin = target: T1, pepsin (Sus scrofa, UniProt P00791); assay: Deacetylation of 3/15ADON by pepsin; type: in vitro ADME, porcine; details: for Disappearance of 3/15ADON, specific activity: pepsin 1.6 mg/mL, HCl 10 mM pH 2.3, 37 °C, substrate 100 μM; for Contribution to total deacetylation activity: Pepsin: percentage of sum of specific activities (Figure 8)
T1 construct: purchased Sigma-Aldrich
T1 sequence (P00791 60-385): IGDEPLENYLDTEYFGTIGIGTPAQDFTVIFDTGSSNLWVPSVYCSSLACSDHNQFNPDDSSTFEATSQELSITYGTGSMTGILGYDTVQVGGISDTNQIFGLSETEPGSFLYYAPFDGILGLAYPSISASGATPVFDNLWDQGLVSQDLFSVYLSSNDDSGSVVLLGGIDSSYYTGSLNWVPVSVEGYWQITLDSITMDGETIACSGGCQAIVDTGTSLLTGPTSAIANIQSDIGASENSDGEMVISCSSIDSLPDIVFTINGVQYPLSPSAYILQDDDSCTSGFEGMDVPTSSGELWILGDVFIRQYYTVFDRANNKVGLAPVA
Experimental: (§1) Stock solutions of DON, 3ADON and 15ADON at 2 mg/mL were prepared in absolute ethanol and stored at −20 °C. For deacetylation assay, 3- or 15ADON were incubated with cells, explants, bacteria or digestive enzymes after being diluted in PBS^++ at a final concentration of 100 μM. PBS^++ solution containing only ethanol (at 1.5% final concentration) or DON (at 100 μM) were used in parallel as negative and positive control, respectively. For cells and explants, deacetylation assay take place in 6-well plates, wells being filled with 2 mL of PBS^++ containing either ethanol, DON, 3- or 15ADON. For fecal bacteria and digestive enzyme assay, deacetylation assay was conducted in 2 mL Eppendorf tubes filled with 1.5 mL of PBS^++ containing either ethanol, DON, 3- or 15ADON. In vitro intestinal digestion by luminal enzymes was performed using porcine enzymes from Sigma-Aldrich and physiological conditions. Briefly, 3- or 15ADON were incubated with pepsin (at 1.6 mg/mL corresponding to 900 U/mL), trypsin (at 0.35 mg/mL corresponding to 6000 U/mL), pancreatic lipase (at 0.75 mg/mL corresponding to 18 U/mL) or pancreatin (at 1.23 mg/mL, lipase activity >10 U/mL, protease activity >100 U/mL, amylase activity >100 U/mL). Except for pepsin for which the digestion was conducted in HCl solution at 10 mM (pH 2.3), in vitro digestion was performed in PBS^++ (pH 7.4). Finally, deacetylation assay was also performed with commercial pooled S9 fractions from human liver, small intestine and kidneys as well as with pure recombinant human CES1 and CES2. S9 fractions and CES1/2 were used at 0.1 mg/mL and 5 μg/mL (corresponding to CES activity >20 U/mL), respectively. In all cases, aliquots of the reaction solution were collected immediately (i.e., “time zero” sample) or after the indicated time period at 37 °C and analyzed by HPLC. […] In all cases, the experiments were conducted in triplicate (n = 3).
Deacetylation was monitoring both in term of disappearance of 3- or 15ADON and formation of DON. Measurement of DON, 3ADON and 15ADON concentrations was performed by reversed-phase HPLC using Waters Alliance System equipped with a Waters 2690 XE separation module and a Waters 996 photodiode array detector (Waters, Saint Quentin Falavier, France). The separation was achieved by mean of a LiChroCart column (125 mm × 4 mm) packed with 5 μm RP-18 Purospher gel (Merck, Darmstadt, Germany) and equipped with a LiChroCart precolumn (4 mm × 4 mm) packed with the same material (Merck). The precolumn and column were placed in room temperature. […] Quantification was based on calibration with the corresponding standard using Millinium Software (Waters, Saint Quentin Falavier, France).

T84 cells = assay: Deacetylation of 3/15ADON by T84 cells; type: in vitro ADME, human; details: T84, 37 °C, substrate 100 μM
Experimental: A498, Caco-2, T84 and HepG2 cells were used as models of human renal, small intestinal, colonic and hepatic cells, respectively. Cells were routinely grown in culture media (Dulbecco’s Modified Eagle Medium (DMEM), DMEM:F12 mixture and Minimum Essential Media (MEM) for A498/Caco-2, T84 and HepG2 cells, respectively) supplemented with 10% fetal calf serum and 1% antibiotics (streptomycin–penicillin solution). Cells were grown in 25 cm^2 ventilated flask maintained at 37 °C in a 5% CO2 incubator. Cells were routinely passed using trypsin-EDTA solution. For deacetylation experiments, cells were seeded onto 6-well plates at an initial density of 200,000 cells/cm^2. HepG2 and A498 were used 3–4 days post-seeding when confluence was reached. Caco-2 and T84 cells were let to differentiate for 10–14 days post-seeding before being used. In all cases, cells were washed three times with sterile phosphate buffer saline PBS^++ (PBS containing 100 mg/L of calcium and magnesium salts) before deacetylation assay.
Stock solutions of DON, 3ADON and 15ADON at 2 mg/mL were prepared in absolute ethanol and stored at −20 °C. […] In all cases, aliquots of the reaction solution were collected immediately (i.e., “time zero” sample) or after the indicated time period at 37 °C and analyzed by HPLC. […]

[1] = Deacetylation of 3/15ADON by liver S9 fraction; type: in vitro ADME, human
Experimental: as §1
Deacetylation was monitoring both in term of disappearance of 3- or 15ADON and formation of DON. Measurement of DON, 3ADON and 15ADON concentrations was performed by reversed-phase HPLC using Waters Alliance System equipped with a Waters 2690 XE separation module and a Waters 996 photodiode array detector (Waters, Saint Quentin Falavier, France). The separation was achieved by mean of a LiChroCart column (125 mm × 4 mm) packed with 5 μm RP-18 Purospher gel (Merck, Darmstadt, Germany) and equipped with a LiChroCart precolumn (4 mm × 4 mm) packed with the same material (Merck). The precolumn and column were placed in room temperature. The elution procedure was carried out at 0.7 mL·min^−1 by a methanol–water solvent, using the following conditions: 40% methanol during 2 min followed by an increase in methanol to 50% at 2.1 min. The detection wavelength was set at 237 nm allowing the best signal/baseline ratio for simultaneous detection of the three DON forms in the incubation mediums. Under these conditions, DON and 3/15ADON were clearly separated, the retention time being around 2.7 min and 5.7 min, for DON and 3/15ADON, respectively (Figure 9). Quantification was based on calibration with the corresponding standard using Millinium Software (Waters, Saint Quentin Falavier, France).

[2] = tested on: pepsin and pancreatic enzymes (pancreatin, trypsin, lipase); assay: Deacetylation of 3/15ADON by luminal digestive enzymes (taken together); type: in vitro ADME, porcine; details: percentage of sum of specific activities (Figure 8)
Experimental: (§2) Stock solutions of DON, 3ADON and 15ADON at 2 mg/mL were prepared in absolute ethanol and stored at −20 °C. For deacetylation assay, 3- or 15ADON were incubated with cells, explants, bacteria or digestive enzymes after being diluted in PBS^++ at a final concentration of 100 μM. PBS^++ solution containing only ethanol (at 1.5% final concentration) or DON (at 100 μM) were used in parallel as negative and positive control, respectively. For cells and explants, deacetylation assay take place in 6-well plates, wells being filled with 2 mL of PBS^++ containing either ethanol, DON, 3- or 15ADON. For fecal bacteria and digestive enzyme assay, deacetylation assay was conducted in 2 mL Eppendorf tubes filled with 1.5 mL of PBS^++ containing either ethanol, DON, 3- or 15ADON. In vitro intestinal digestion by luminal enzymes was performed using porcine enzymes from Sigma-Aldrich and physiological conditions. […] In all cases, aliquots of the reaction solution were collected immediately (i.e., “time zero” sample) or after the indicated time period at 37 °C and analyzed by HPLC. […]
(§3) Deacetylation was monitoring both in term of disappearance of 3- or 15ADON and formation of DON. […] Quantification was based on calibration with the corresponding standard using Millinium Software (Waters, Saint Quentin Falavier, France).

recombinant human CES2 = target: T2, recombinant human CES2 (Homo sapiens, UniProt O00748); assay: Deacetylation of 3/15ADON by recombinant CES2; type: in vitro ADME; parameters: purchased R&D Systems; details: 5 μg/mL CES2, up to 24 h, data not shown
T2 sequence (O00748 27-559): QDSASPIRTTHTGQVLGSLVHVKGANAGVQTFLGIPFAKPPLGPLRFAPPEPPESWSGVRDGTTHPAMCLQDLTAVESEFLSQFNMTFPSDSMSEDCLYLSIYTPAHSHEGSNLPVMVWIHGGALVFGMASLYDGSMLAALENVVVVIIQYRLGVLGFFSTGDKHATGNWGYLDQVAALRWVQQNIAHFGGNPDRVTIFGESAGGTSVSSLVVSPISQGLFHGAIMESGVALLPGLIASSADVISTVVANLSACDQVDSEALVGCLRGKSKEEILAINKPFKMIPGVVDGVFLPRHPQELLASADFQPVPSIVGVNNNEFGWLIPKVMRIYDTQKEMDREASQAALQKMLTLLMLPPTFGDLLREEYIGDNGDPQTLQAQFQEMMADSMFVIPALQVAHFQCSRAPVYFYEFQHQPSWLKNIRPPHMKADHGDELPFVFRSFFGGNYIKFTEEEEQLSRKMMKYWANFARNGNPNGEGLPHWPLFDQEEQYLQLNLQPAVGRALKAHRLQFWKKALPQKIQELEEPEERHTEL
Experimental: as §2, §3

[3] = S9 Liver + Benzil 100 μM (Table 1)
[4] = S9 Liver, without benzil (Table 1)
[5] = S9 liver 0.1 mg/mL, 37 °C, substrate 100 μM (Table 3)

Compound | Disappearance of 3/15ADON, specific activity (pepsin) | Contribution to total deacetylation activity: Pepsin (pepsin) | Disappearance of 3/15ADON, specific activity (T84 cells) | Disappearance of 3/15ADON, specific activity [1, 3] | Disappearance of 3/15ADON, specific activity [1, 4] | Disappearance of 3/15ADON, specific activity [1, 5] | Contribution to total deacetylation activity: Pancreatic enzymes [2] | Deacetylation activity of CES2 on 3/15ADON (recombinant human CES2)
CC(=O)O[C@@H]1C[C@]2(C)[C@@]3(CO)[C@H](O)C(=O)C(C)=C[C@H]3O[C@H]1[C@@]21CO1 [3ADON, 3-acetyldeoxynivalenol] | 34 ± 7.5 pmol/min/mg | 3% | 80 pmol/min/mg and 80 ± 24 pmol/min/mg | 1583 ± 39 pmol/min/mg | 1729 ± 27 pmol/min/mg | 1791 pmol/min/mg and 1791 ± 29 pmol/min/mg | 10% | failed at observing any deacetylation activity; also recorded: unable to cause the deacetylation
CC(=O)OC[C@]12[C@H](O)C(=O)C(C)=C[C@H]1O[C@@H]1[C@H](O)C[C@@]2(C)[C@]12CO2 [15ADON, 15-acetyldeoxynivalenol] | 40 ± 4.5 pmol/min/mg | 7% | 98 pmol/min/mg and 98 ± 29 pmol/min/mg | 125 ± 15 pmol/min/mg | 166 ± 3.5 pmol/min/mg | 208 pmol/min/mg and 208 ± 41 pmol/min/mg | 26% | failed at observing any deacetylation activity; also recorded: unable to cause the deacetylation
